# Assay results published in PubChem BioAssay AID192 (DTP/NCI, 2004).
# Several values for one entry are separate records, joined by “and”; a condition that tells them apart may be missing. Equal values may be shown once. Inconclusive results and toxic doses are left out.
# Tested on: BDF1 mice, B16 melanoma ip, median survival T/C
# Test: NCI In Vivo Anticancer Drug Screen. Data for tumor model B16 Melanoma (intraperitoneal) in B6D2F1 (BDF1) mice
# Details: endpoint: median survival time, higher = longer survival
# Method in brief: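 Compounds were tested in mice carrying transplantable tumors. Survival or tumor size was recorded, and each value is the treated-group measurement (T) divided by that of the vehicle-treated control group (C).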
# [1] = dose: 25.0 mg/kg/injection, schedule: Q01DX009 (ip), vehicle: saline with Tween-80
# [2] = dose: 50.0 mg/kg/injection, schedule: Q01DX009 (ip), vehicle: saline with Tween-80
# [3] = dose: 100.0 mg/kg/injection, schedule: Q04DX003 (ip), vehicle: saline with Tween-80
# [4] = dose: 100.0 mg/kg/injection, schedule: Q01DX009 (ip), vehicle: Klucel (hydroxypropylcellulose) (HPC)
# [5] = dose: 100.0 mg/kg/injection, schedule: Q01DX009 (ip), vehicle: saline with Tween-80
# [6] = dose: 400.0 mg/kg/injection, schedule: Q01DX009 (ip), vehicle: saline with Tween-80
# [7] = dose: 6.25 mg/kg/injection, schedule: Q01DX009 (ip), vehicle: saline
# [8] = dose: 12.5 mg/kg/injection, schedule: Q01DX009 (ip), vehicle: saline
# [9] = dose: 25.0 mg/kg/injection, schedule: Q01DX009 (ip), vehicle: saline
structure (smiles),measurement,setting,value
CC(C)=CCC/C(C)=C\CCl,T/C,[1],105 % of control
same,T/C,[2],101 % of control
Nc1nc(=S)c2ncn(C3OC(COC(=O)c4ccccc4)C(OC(=O)c4ccccc4)C3OC(=O)c3ccccc3)c2[nH]1 (stereo not drawn),T/C,[1],115 % of control
CC(=O)OCC(OC(C)=O)C(OC(C)=O)C(OC(C)=O)C(C#N)OC(C)=O (stereo not drawn),T/C,"dose: 100.0 mg/kg/injection, schedule: Q01DX005 (ip), vehicle: saline with Tween-80",104 % of control
same,T/C,[3],86 % of control
same,T/C,"dose: 200.0 mg/kg/injection, schedule: Q01DX005 (ip), vehicle: saline with Tween-80",100 % of control
same,T/C,"dose: 200.0 mg/kg/injection, schedule: Q04DX003 (ip), vehicle: saline with Tween-80",97 % of control
same,T/C,"dose: 400.0 mg/kg/injection, schedule: Q01DX005 (ip), vehicle: saline with Tween-80",97 % of control
Cc1ccc(S(=O)(=O)N/N=C(\C(=O)O)c2ccccc2)cc1,T/C,"dose: 12.5 mg/kg/injection, schedule: Q01DX009 (ip), vehicle: Klucel (hydroxypropylcellulose) (HPC)",95 % of control
same,T/C,"dose: 25.0 mg/kg/injection, schedule: Q01DX009 (ip), vehicle: Klucel (hydroxypropylcellulose) (HPC)",87 % of control and 88 % of control
same,T/C,"dose: 50.0 mg/kg/injection, schedule: Q01DX009 (ip), vehicle: Klucel (hydroxypropylcellulose) (HPC)",91 % of control
same,T/C,[4],89 % of control
C[C@]12CC[C@H]3[C@@H](CCC4=CC(=O)CC[C@@]43C)[C@@H]1CC[C@@H]2OC(=O)Cc1ccc(N(CCCl)CCCl)cc1,T/C,"dose: 64.0 mg/kg/injection, schedule: Q02DX009 (ip), vehicle: Klucel (hydroxypropylcellulose) (HPC)",100 % of control and 111 % of control
same,T/C,"dose: 128.0 mg/kg/injection, schedule: Q02DX009 (ip), vehicle: Klucel (hydroxypropylcellulose) (HPC)",95 % of control and 115 % of control
same,T/C,"dose: 256.0 mg/kg/injection, schedule: Q02DX009 (ip), vehicle: Klucel (hydroxypropylcellulose) (HPC)",122 % of control
Cc1nc(/N=N/c2nc(C)c(C)[nH]2)[nH]c1C,T/C,[4],102 % of control
same,T/C,"dose: 200.0 mg/kg/injection, schedule: Q01DX009 (ip), vehicle: Klucel (hydroxypropylcellulose) (HPC)",101 % of control
same,T/C,"dose: 400.0 mg/kg/injection, schedule: Q01DX009 (ip), vehicle: Klucel (hydroxypropylcellulose) (HPC)",96 % of control
c1ccc2c(c1)Cc1cc3ccccc3nc1-2,T/C,"dose: 100.0 mg/kg/injection, schedule: Q04DX003 (ip), vehicle: Klucel (hydroxypropylcellulose) (HPC)",102 % of control
same,T/C,"dose: 200.0 mg/kg/injection, schedule: Q04DX003 (ip), vehicle: Klucel (hydroxypropylcellulose) (HPC)",114 % of control
same,T/C,"dose: 400.0 mg/kg/injection, schedule: Q04DX003 (ip), vehicle: Klucel (hydroxypropylcellulose) (HPC)",98 % of control
CC1=C(/C=C/C(C)=C/C=C/C(C)=C/C=O)C(C)(C)CCC1,T/C,"dose: 16.0 mg/kg/injection, schedule: Q01DX005 (ip), vehicle: DMSO",94 % of control
same,T/C,"dose: 32.0 mg/kg/injection, schedule: Q01DX005 (ip), vehicle: DMSO",88 % of control
same,T/C,"dose: 64.0 mg/kg/injection, schedule: Q01DX005 (ip), vehicle: DMSO",89 % of control
COc1ccc(CC2C(=O)NC(C)C(=O)N(C)C3C(=O)N(C)C(Cc4ccc(O)c(c4)Oc4ccc(cc4)C3O)C(=O)NC(C)C(=O)NC(C)C(=O)N2C)cc1 (stereo not drawn),T/C,"dose: 0.5 mg/kg/injection, schedule: Q01DX009 (ip), vehicle: saline with Tween-80",152 % of control
same,T/C,"dose: 125.0 micrograms/kg/injection, schedule: Q01DX009 (ip), vehicle: saline with Tween-80",118 % of control
Cc1cccc(NC(=O)CCl)c1,T/C,"dose: 50.0 mg/kg/injection, schedule: Q01DX009 (ip), vehicle: carboxymethylcellulose (CMC)",109 % of control
same,T/C,"dose: 100.0 mg/kg/injection, schedule: Q01DX009 (ip), vehicle: carboxymethylcellulose (CMC)",101 % of control
OC(Cc1nc2ccccc2s1)(C(F)(F)F)C(F)(F)F,T/C,[5],111 % of control
same,T/C,[3],89 % of control
same,T/C,[6],108 % of control
same,T/C,"dose: 400.0 mg/kg/injection, schedule: Q04DX003 (ip), vehicle: saline with Tween-80",102 % of control
O=CNC(Cc1cnc[nH]1)C(=O)O (stereo not drawn),T/C,[2],102 % of control
same,T/C,[5],100 % of control
same,T/C,"dose: 200.0 mg/kg/injection, schedule: Q01DX009 (ip), vehicle: saline with Tween-80",103 % of control
same,T/C,[6],100 % of control
CCC12C=CCN3CCC4(c5cc(C6c7[nH]c8ccccc8c7CCN7CCCCC67)c(OC)cc5N(C)C4C(O)(C(=O)OC)C1OC(C)=O)C32 (stereo not drawn),T/C,"dose: 0.06 mg/kg/injection, schedule: Q01DX009 (ip), vehicle: other",98 % of control
same,T/C,"dose: 0.13 mg/kg/injection, schedule: Q01DX009 (ip), vehicle: other",96 % of control
same,T/C,"dose: 0.25 mg/kg/injection, schedule: Q01DX009 (ip), vehicle: other",96 % of control
same,T/C,"dose: 0.5 mg/kg/injection, schedule: Q01DX009 (ip), vehicle: other",108 % of control
same,T/C,"dose: 1.0 mg/kg/injection, schedule: Q01DX009 (ip), vehicle: other",108 % of control
same,T/C,"dose: 2.0 mg/kg/injection, schedule: Q01DX009 (ip), vehicle: other",108 % of control
COc1ccc2c(c1[N+](=O)[O-])CC[C@@H]1[C@@H]2CC[C@]2(C)C(=O)CC[C@@H]12,T/C,[2],87 % of control
same,T/C,[5],89 % of control
O=C(CCCN1CCN(c2ccccn2)CC1)c1ccc(F)cc1,T/C,"dose: 0.19 mg/kg/injection, schedule: Q01DX009 (ip), vehicle: Klucel (hydroxypropylcellulose) (HPC)",93 % of control
same,T/C,"dose: 0.39 mg/kg/injection, schedule: Q01DX009 (ip), vehicle: Klucel (hydroxypropylcellulose) (HPC)",89 % of control
same,T/C,"dose: 0.78 mg/kg/injection, schedule: Q01DX009 (ip), vehicle: Klucel (hydroxypropylcellulose) (HPC)",110 % of control
same,T/C,"dose: 1.56 mg/kg/injection, schedule: Q01DX009 (ip), vehicle: Klucel (hydroxypropylcellulose) (HPC)",92 % of control
same,T/C,"dose: 3.12 mg/kg/injection, schedule: Q01DX009 (ip), vehicle: Klucel (hydroxypropylcellulose) (HPC)",88 % of control
CCc1ccccc1NC(=O)Nc1ccc(Cl)c(Cl)c1,T/C,"dose: 75.0 mg/kg/injection, schedule: Q01DX009 (ip), vehicle: Klucel (hydroxypropylcellulose) (HPC)",102 % of control
same,T/C,"dose: 150.0 mg/kg/injection, schedule: Q01DX009 (ip), vehicle: Klucel (hydroxypropylcellulose) (HPC)",97 % of control
same,T/C,"dose: 300.0 mg/kg/injection, schedule: Q01DX009 (ip), vehicle: Klucel (hydroxypropylcellulose) (HPC)",89 % of control
CN1C(=O)NC(c2ccc(Cl)cc2)(c2ccc(Cl)cc2)C1=O,T/C,"dose: 0.78 mg/kg/injection, schedule: Q01DX009 (ip), vehicle: water",100 % of control
same,T/C,"dose: 1.56 mg/kg/injection, schedule: Q01DX009 (ip), vehicle: water",95 % of control
same,T/C,"dose: 3.12 mg/kg/injection, schedule: Q01DX009 (ip), vehicle: water",100 % of control
same,T/C,"dose: 6.25 mg/kg/injection, schedule: Q01DX009 (ip), vehicle: water",100 % of control and 112 % of control
same,T/C,"dose: 12.5 mg/kg/injection, schedule: Q01DX009 (ip), vehicle: distilled water + Tween-80",100 % of control
same,T/C,"dose: 12.5 mg/kg/injection, schedule: Q01DX009 (ip), vehicle: water",99 % of control and 102 % of control
same,T/C,"dose: 25.0 mg/kg/injection, schedule: Q01DX009 (ip), vehicle: distilled water + Tween-80",105 % of control
same,T/C,"dose: 25.0 mg/kg/injection, schedule: Q01DX009 (ip), vehicle: water",101 % of control and 105 % of control
same,T/C,"dose: 50.0 mg/kg/injection, schedule: Q01DX009 (ip), vehicle: distilled water + Tween-80",99 % of control
same,T/C,"dose: 100.0 mg/kg/injection, schedule: Q01DX009 (ip), vehicle: distilled water + Tween-80",116 % of control
same,T/C,"dose: 200.0 mg/kg/injection, schedule: Q01DX009 (ip), vehicle: distilled water + Tween-80",98 % of control
Cc1ccc(S(=O)(=O)OC2CCN(C)CC2)cc1,T/C,"dose: 3.0 mg/kg/injection, schedule: Q04DX003 (ip), vehicle: Klucel (hydroxypropylcellulose) (HPC)",90 % of control
same,T/C,"dose: 6.0 mg/kg/injection, schedule: Q04DX003 (ip), vehicle: Klucel (hydroxypropylcellulose) (HPC)",86 % of control
same,T/C,[7],100 % of control
same,T/C,"dose: 6.25 mg/kg/injection, schedule: Q04DX003 (ip), vehicle: saline",94 % of control
same,T/C,[8],100 % of control
same,T/C,"dose: 12.5 mg/kg/injection, schedule: Q04DX003 (ip), vehicle: saline",97 % of control
same,T/C,[9],100 % of control
same,T/C,"dose: 25.0 mg/kg/injection, schedule: Q04DX003 (ip), vehicle: saline",94 % of control
CCCCC(=O)OC1CC2CCC1(C)C2(C)C (stereo not drawn),T/C,[4],90 % of control
CC(C)C(N)C(=O)Nc1nncs1 (stereo not drawn),T/C,[8],103 % of control
same,T/C,[9],114 % of control
same,T/C,"dose: 50.0 mg/kg/injection, schedule: Q01DX009 (ip), vehicle: saline",108 % of control
same,T/C,"dose: 100.0 mg/kg/injection, schedule: Q01DX009 (ip), vehicle: saline",102 % of control
CN(C)c1ccc2nc3ccc(=[N+](C)C)cc-3sc2c1,T/C,[7],86 % of control
same,T/C,[8],93 % of control
